Measurements taken from patent US12064479B2, “Lipid nanoparticles for delivery of nucleic acids and methods of use thereof” (Akagera Medicines, Inc., priority 2022, dated 2024).

What was measured:
Type in all cases: physicochemical
[1] = Apparent solubility of phosphatidylserine salts in ethanol (shake flask); settings: for Solubility, mM phosphatidylserine: 100% ethanol, room temperature, 24 hours, N=3
Experimental: Apparent solubilities of phosphatidylserine salts in ethanol were determined by shake flask technique. Sodium and ammonium salts of phosphatidylserines in the powder form were obtained from Avanti Polar Lipids (Alabama, USA). Aliquots of phosphatidylserine salt powder were placed in 12×75 borosilicate glass tubes in triplicate. Three mL of 200 proof ethanol (catalog number E-7023, MilliporeSigma, USA) were added, the tubes were closed with polyethylene snap caps, agitated using vortex mixer for 10-15 s to obtain uniform suspensions, and placed in a horizontal position on a rocking platform at room temperature (20-22° C.) overnight. The ambient temperature at the end of incubation was 20.4-20.9° C. After 24 hours incubation, the suspensions were visually checked for the presence of a solid phase, allowed to settle under gravity, and the supernatant solutions were passed through a 0.2-μm PTFE syringe membrane filters. The first 0.5 ml of the filtrate was discarded, the next 1 ml was collected, and phosphatidylserine in the filtrates was quantified by phospholipid phosphate assay as follows: 20 μL aliquots of the filtrate were taken in triplicate into glass tubes, ethanol was evaporated in a stream of argon at 70° C., and the residue was digested in a mixture of 60 μL concentrated sulfuric acid and 20 μL 30% hydrogen peroxide for 10 min at 180-190° C. The digested samples were diluted with 1 mL of deionized water, 20 μL of 10% sodium sulfite was added to destroy any residual peroxide, and the samples were incubated on a boiling water bath for 15 min to hydrolyze any condensed phosphate species. The samples were chilled down to room temperature, mixed with 0.2 mL of 2% (w/w) ammonium molybdate solution and 20 μL of 10% (w/w) ascorbic acid solution, incubated on a boiling water bath for 10 min, and chilled down in a water bath at room temperature. The phosphate concentration was determined from the optical density of the formed blue phosphomolybdic acid at 825 nm using five-point standard curve from concurrently run standards prepared from the NIST-traceable commercial phosphate standard solution diluted to cover the range of 0-2 mM phosphate (coefficient of determination R^2>0.9999). Solubility of phosphatidylserine salts was expressed in molarity units of phosphatidylserine (Table 40). The data are average f SD (N=3).

[2] = Stability of ionizable cationic lipids under accelerated oxidation (H2O2/Fe(III)Cl, UHPLC-CAD), Example 29; settings: for % of main lipid peak to To, 24 h.: individual lipids 0.5 mM; for % of main lipid peak to To, 24 h. / % of main lipid peak to To, 48 h. / % of main lipid peak to To, 72 h.: 1% H2O2/100 μM Fe(III)Cl, 37° C.; for % of main lipid peak to To, 48 h. / % of main lipid peak to To, 72 h.: individual lipids
Experimental: Ethanol (Sigma-Aldrich, cat #459836) stocks of 1 mM cationic lipids (KC3, KC3-OA, KC3-PA, KC3-C17 and KC3-C17(C8:1)) were prepared and stored at −20° C. Prior to the experiment, 75 μl of a lipid stock was mixed with 75 μl of ultra-pure water (Rx Biosciences, cat #P01-UPW02-1000) to make 0.5 mM of cationic lipids and 5 mM of linoleic acid respectively. A combined stock in water of 10% H2O2 (Sigma-Aldrich, cat #H1009) and 1 mM of Fe(III)Cl (Sigma-Aldrich, cat #372870) was freshly by prepared prior to the experiment. To make 1% final concentration of H2O2 and 100 μM Fe(III)Cl, 15 μl of 10% H2O2/1 mM Fe(III)Cl stock was added to 135 μl of individual lipids The liposomes and individual lipids were incubated with H2O2/Fe(III)Cl at 37° C. and then 5 μl from each sample was taken at different time points (0, 24, 48, 72 and 96 hours) and dissolved in 90 μl of MeOH for HPLC analysis. Degradation of the main lipid peak was analyzed using Thermo Scientific Vanquish Flex UHPLC occupied with Charged Aerosol Detector (CAD) and Phenomenex™ Kinetex C8 column (L=150 mm, D=2.1 mm, Particle Size=1.7 μm, 100 A).
The data are presented as a percentage of the main lipid peak measured at different time points relative to the lipid peak measured at time zero.

[3] = Oxidative stability of ICLs and liposomes under accelerated oxidation (H2O2/Fe(III)Cl, UHPLC-CAD), Example 18; settings: ICL lipid suspensions, 1% H2O2/100 μM Fe(III)Cl, 37° C.
Experimental: Individual lipid stocks (10 mM) were prepared in ethanol and stored at −20° C. […] Liposomal formulations based on AKG-UO-1 and O-11769 ionizable cationic lipids (Table 12) were prepared by combining lipid mixtures of desired composition in 1 mL ethanol with 3 mL 6.25 mM sodium acetate, pH 5.0 at 6 mL/min on a NanoAssemblr (Precision Nanosystems). 3.6 mL of the mixture was retained, while the initial 0.35 mL of the mixture and final 0.05 mL were discarded. Ethanol was removed by buffer exchange into PBS, pH 7.4 by concentrating each liposome preparation using an Aminon-Ultra 4 centrifugal concentrator at 500 g for 10 min at 4° C. and diluting back to the original volume with PBS. This cycle was repeated multiple times until the ethanol concentration was <1%. Finally, liposomes were sterile filtered through 0.2 μm PES (Nalgene) syringe filters and size measured by a ZetaSizer (Malvern).
Aliquots of the liposomal formulations were stored at −80° C. and thawed before the experiment. A combined stock in water of 10% H2O2 (Sigma-Aldrich, cat #H1009) and 1 mM of Fe(III)Cl (Sigma-Aldrich, cat #372870) was freshly prepared prior to the treatment. To make 1% final concentration of H2O2 and 100 μM Fe(III)Cl, 10 μl of 10% H2O2/1 mM Fe(III)Cl stock was added to 90 μl of both liposomal formulations and individual lipids The liposomes and individual lipids were incubated with H2O2/Fe(III)Cl at 37° C. and then 5 μl from each sample was taken at different time points (0, 3, 24, 48 and 72 hours) and dissolved in 90 μl of MeOH for HPLC analysis. Degradation of the main lipid peak was analyzed using Thermo Scientific Vanquish Flex UHPLC occupied with Charged Aerosol Detector (CAD) and Thermo Scientific Accucore™ C18+ UHPLC column (L=50 mm, D=2.1 mm, Particle Size=1.5 μm).
The data are presented as a percentage of the main lipid pea measure at different time points relative to the lipid peak measured at time zero.

| % of main lipid peak to To, 24 h. [2] | % of main lipid peak to To, 48 h. [2] | % of main lipid peak to To, 72 h. [2] | Compound | Solubility, mM phosphatidylserine [1] | further results |
| --- | --- | --- | --- | --- | --- |
| 11.2 ± 1.0% | 10.5 ± 0.5% | 0 ± 0% | CCCCC/C=C\C/C=C\CCCCCCCCC1(CCCCCCCC/C=C\C/C=C\CCCCC)OCC(CCCN(C)C)O1 (stereo not drawn) [KC3, reference compound] |  | degradation under forced oxidation with H2O2 ([2]; relative to other cationic lipids, FIG. 18): fastest degradation |
| 66.1 ± 0.6% | 58.4 ± 1.5% | 45.9 ± 4.7% | CCCCCCCC/C=C\CCCCCCCC1(CCCCCCC/C=C\CCCCCCCC)OC[C@H](CCCN(C)C)O1 [KC3-17 (C8:1), 3-((S)-2,2-di((Z)-heptadec-8-en-1-yl)-1,3-dioxolan-4-yl)-N,N-dimethylpropan-1-amine] |  |  |
| 92.9 ± 0.3% | 91.8 ± 1.2% | 90.2 ± 1.2% | CCCCCCCCCCCCCCCCCC1(CCCCCCCCCCCCCCCCC)OC[C@H](CCCN(C)C)O1 [KC3-17, (S)-3-(2,2-diheptadecyl-1,3-dioxolan-4-yl)-N,N-dimethylpropan-1-amine] |  |  |
| 88.9 ± 0.5% | 84.6 ± 0.9% | 79.0 ± 0.1% | CCCCCCCC/C=C\CCCCCCCCC1(CCCCCCCC/C=C\CCCCCCCC)OC[C@H](CCCN(C)C)O1 [KC3-OA, 3-((S)-2,2-di((Z)-octadec-9-en-1-yl)-1,3-dioxolan-4-yl)-N,N-dimethylpropan-1-amine] |  |  |
| 62.7 ± 0.1% | 59.2 ± 0.8% | 60.2 ± 0.6% | CCCCCC/C=C\CCCCCCCCC1(CCCCCCCC/C=C\CCCCCC)OC[C@H](CCCN(C)C)O1 [KC3-PA, 3-((S)-2,2-di((Z)-hexadec-9-en-1-yl)-1,3-dioxolan-4-yl)-N,N-dimethylpropan-1-amine] |  |  |

Further lines, the compound ahead of its results:

| Compound | % of main lipid peak to To, 24 h. [2] | % of main lipid peak to To, 48 h. [2] | % of main lipid peak to To, 72 h. [2] | Solubility, mM phosphatidylserine [1] | further results |
| --- | --- | --- | --- | --- | --- |
| CCCCCCCCCCCCCCCC(=O)OC[C@H](COP(=O)(O)OC[C@H](N)C(=O)O)OC(=O)CCCCCCCCCCCCCCC.N [DPPS ammonium] |  |  |  | 0.865 ± 0.060 mM | ethanol solubility ([1]; vs DSPS ammonium and the sodium salts): several-fold higher ethanol solubility |
| CCCCCCCCCCCCCCCC(=O)OC[C@H](COP(=O)(O)OC[C@H](N)C(=O)[O-])OC(=O)CCCCCCCCCCCCCCC.[Na+] [DPPS sodium] |  |  |  | 0.201 ± 0.004 mM |  |
| CCCCCCCCCCCCCCCCCC(=O)OC[C@H](COP(=O)(O)OC[C@H](N)C(=O)O)OC(=O)CCCCCCCCCCCCCCCCC.N [DSPS ammonium] |  |  |  | 0.034 ± 0.004 mM |  |
| CCCCCCCCCCCCCCCCCC(=O)OC[C@H](COP(=O)(O)OC[C@H](N)C(=O)[O-])OC(=O)CCCCCCCCCCCCCCCCC.[Na+] [DSPS sodium] |  |  |  | 0.111 ± 0.009 mM |  |
| CCCCC/C=C\CCCC/C=C\CCCCC(=O)OC[C@H](CCN(C)CCO)OC(=O)CCCC/C=C\CCCC/C=C\CCCCC [UO-6] |  |  |  |  | % of parent lipid peak at time 0, 24 h [3]: 58 ± 0.8%; % of parent lipid peak at time 0, 48 h [3]: 32 ± 1.3%; % of parent lipid peak at time 0, 72 h [3]: 22 ± 1.8% |
| CCCCC/C=C\CCCC/C=C\CCCCC(=O)OC[C@H](CCCN(C)C)OC(=O)CCCC/C=C\CCCC/C=C\CCCCC [UO-7] |  |  |  |  | % of parent lipid peak at time 0, 24 h [3]: 80 ± 1.7%; % of parent lipid peak at time 0, 48 h [3]: 71 ± 0.8%; % of parent lipid peak at time 0, 72 h [3]: 62 ± 1.0% |
